{
  "source": "patent US11447534B2",
  "about": "“Peptide complex with immunodulatory and anti-inflammatory function” (NATIONAL INSTITUTE OF IMMUNOLOGY, priority 2018, dated 2022)",
  "key": {"[1]": {"test_system": "RAW264.7 macrophages", "assay": "Lactate dehydrogenase (LDH) assay in macrophages", "assay_type": "cell-based, murine", "conditions": "macrophages, serum starved, 1 hour", "method": "Effect of Abeta-Glu-OC (3 ng) mixture on macrophage integrity: To determine whether the mixture produced any toxicity lactate dehydrogenase (LDH) assay was performed. Briefly, the cells were incubated with the mixture under serum starved conditions for 1 hour followed by LDH assay. LDH was assayed using In vitro toxicology assay kit from Sigma-Aldrich, St. Louis, Mo., USA (cat. no.-TOX7) as per the manufacturer's directions. LDH assay substrate solution, LDH assay dye solution and 1×LDH assay cofactor were provided with the kit. […] To this LDH assay mixture was added and incubated at room temperature in the dark for 20-30 min. The reaction was terminated by the addition of 1/10 volume of 1N HCl. Absorption was taken 490 nm with the help of in a Tecan Microplate reader, Switzerland with Magellan™ software."}, "[2]": {"test_system": "carrageenan induced paw edema", "assay": "Carrageenan induced paw inflammation in mice", "assay_type": "in vivo, mouse", "conditions": "Ibuprofen 100 mg/kg, 5th hour", "method": "The effect of A-O complex was tested under in vivo conditions. Carrageenan, an inflammation inducing agent was injected into the hind foot pad of mouse to induce acute inflammation. The edema attains peak at around 3 hours post carrageenan challenge. This is a convenient model to assess the anti-inflammatory potency of test drugs to reduce or prevent the development of swelling. The protocol followed herein is as per Morris (2003) [Morris C J, 2003, Carrageenan induced paw edema in rat and mouse. In: Winyard P. G., Willoughby D. A. (eds) Inflammation Protocols. Methods in Molecular Biology, Vol 225. Humana Press. Pp 115-121].\nPreparation of carrageenan: To prepare 0.5% of carrageenan solution, 50 mg of lamda-carrageenan ([…], Sigma Chemical Co., St. Louis, Mo., USA) was slowly added onto a small beaker containing 10 ml of normal saline. The powder was allowed to swell for some time and then slightly heated (not boiled) to dissolve the carrageenan. The solution was stirred during the heating. Once dissolved, the solution was cooled and aliquoted and stored at 4 degree Celsius.\nMethod: For experiment, the mice were acclimatized in cages under standard light and temperature settings with access to food and water ad libitum. Mice were acclimatized for 1 week in respective cages to minimize stress. At the day of experiment, mice were placed in a temporary animal restraint and 50 microlitre of carrageenan solution was administered by intraplantar injection to the right hind paw of each mouse. The left paw served as control and was administered 50 microlitre of normal saline.\nTo determine the efficacy of A-O complex different concentrations of complex viz. 5, 20 and 50 microgram per 100 g body weight of mice were administered intraperitoneally 1 hour before carrageenan challenge. Ibuprofen (100 mg/kg, Sigma Chemical Co., St. Louis, Mo., USA) served as positive control for the experiment. Paw size was measured by wrapping a piece of cotton thread round the paw of each […] and recording the length of the thread, the paw circumference, by use of a metric ruler. Paws were measured immediately before and at specified time points after carrageenan injection. Inhibitory activity was calculated at 1-5 h after carrageenan injection with the following formula: % Inhibition=[(Ct−C0)control−(Ct−C0)treated]/(Ct−C0)control×100, where Ct is paw size after carrageenan injection and C0 is paw size before carrageenan injection."}, "[3]": {"test_system": "5×FAD Tg mice", "assay": "Morris water maze test in 5×FAD Tg mice", "assay_type": "in vivo", "conditions": "300 ng per mouse subcutaneously for 2 months, vs 5×FAD Tg control", "method": "(§1) Two month old 5×FAD Tg mice, both male as well as female were used for the study. For the purposes of this study wild type mice is referred to as Wt and 5×FAD mice is referred to as Tg. For experimentation, the mice were divided in below groups for treatment: 1. Wild type mice given vehicle (1×PBS or phosphate buffered saline; pH 7.4). 2. 5×FAD Transgenic mice given vehicle. 3. 5×FAD Transgenic mice given undercarboxylated osteocalcin (Glu-OC) subcutaneously at dose of 300 ng per mouse of weight ranging from 25-28 g for 2 months.\nGlu-OC at a dose of 300 ng per mouse was administered subcutaneously for 2 months. To evaluate the potential of Glu-OC against development of Alzheimer's disease in 5×FAD Tg mice (a mouse model for Alzheimer's disease), the following methodologies used conducted: Morris water maze (MWM) test, immunohistochemistry, double immunostaining, ELISA and Congo Red staining. […] The training was given for the five consecutive days, with the video recording and the track of the animal was also recorded using the Any-maze animal behaviour software. Time taken to find the hidden platform is calculated and plotted."}, "[4]": {"test_system": "5×FAD Tg mice", "assay": "Brain amyloid pathology by Congo Red staining and fibrillar Abeta42 immunostaining", "assay_type": "in vivo, mouse", "conditions": "for amyloid pathology / deposits in brain (Congo Red): 300 ng per mouse subcutaneously for 2 months", "method": "as §1\n(§2) For immunohistochemistry, sacrificed animals were perfused using 4% paraformaldehyde perfusion through the heart and the brains were harvested and submerged in the same fixative for not more than 24 hours. Brains were then washed in 1×PBS (pH 7.4) and placed in 30% sucrose-PBS solution where these initially floated owing to the weight of the sucrose. Upon saturation, the brains sank to the bottom of the sucrose solution. These were then removed and washed in PBS. Brain samples were quick frozen in liquid nitrogen and then embedded in polyfreeze tissue freezing medium in a plastic mould inside a cryostat where in temperature was −20° C. The samples were then stored in −80° C. until sectioning. Sections of 15-20 micrometre was cut in a cryostat and laid over high adsorbent microslides. For unmasking antigens, slides were heated at 55° C. for 10 min followed by hydration in PBS for 5 min and then permeabilization using 0.1% Triton X-100 in PBS containing 1% BSA and 1% normal goat serum (IHC buffer). For immunostaining, brain sections were incubated in primary antibodies (fibrillar Amyloid beta antibody, catalogue number MABN638 was from Millipore-Merk; osteocalcin antibody-catalogue number sc365797 was from Santa Cruz Biotechnology; Abeta1-42 antibody D923A #14974 was from Cell Signaling Technology) diluted in IHC buffer in a humidified chamber at room temperature overnight. For double immunostaining, specific antibodies against Abets42 and osteocalcin were incubated together with brain sections. […]"}, "[5]": {"test_system": "5×FAD Tg mice", "assay": "ELISA of soluble and insoluble Abeta42 in brain", "assay_type": "in vivo, mouse", "conditions": "vs 5×FAD Tg control", "method": "as §1\nas §2, with “sections. After rinsing with PBS three times for 5 min each, sections were incubated with the appropriate secondary antibody conjugated with AlexaFluor 594 or 488 (Molecular Probes, Invitrogen) for 2 h at room temperature. After rinsing with PBS, the coverslips were mounted with ProLong anti-fade mounting medium containing 4′,6-diamidino-2-phenylindole (DAPI) and imaged. Congo Red staining was done using staining kit from Abcam (ab150663) according to manufacturer's instructions. ELISA or enzyme linked immunosorbent assay was conducted on soluble and insoluble fractions prepared from brain samples. (a.) Preparation of soluble or DEA fraction or non-plaque associated Abeta.” for “sections.”"}, "[6]": {"target": "T1, Abeta42 (Homo sapiens, UniProt P05067)", "T1 construct": "of Abeta 1-42 peptide; Molecular weight = 4514.1; purchased r-peptide", "T1 sequence (P05067 672-713)": "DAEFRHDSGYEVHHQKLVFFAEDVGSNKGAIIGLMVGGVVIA", "assay": "Abeta42 fibrillization in situ (TEM, Thioflavin T binding assay)", "assay_type": "biochemical", "method": "For this study, different concentrations of Glu-OC viz. […] After keeping the samples for 5 minutes, the excess was washed off with ultrapure water and surplus sample and water were wicked away using absorbent paper. The samples were negatively stained using 1% uranyl acetate stain, dried and analyzed in a transmission electron microscope CM10 Philips operated at 80 kV. […] ThT assay measures the changes in fluorescence intensity of ThT upon binding to amyloid fibrils. […] The resulting ThT fluorescence intensities of samples were measured at an emission wavelength of 480 nm and excitation wavelength of 440 nm and 5 nm slit width using a Jobin Vyon Horiba Fluoromax-4 spectrofluorimeter. The inner filter effect was taken into account using the Equation: Fc=F×anti log[(Aex+Aem)/2] where Fc is the corrected flourescence and F is apparent fluorescence, Aex and Aem are the absorbances of the samples at excitation and emission wavelengths respectively."}, "[7]": {"test_system": "RAW264.7 macrophages", "assay": "qPCR of Cd74, Cd36 in serum starved macrophages", "assay_type": "cell-based, murine", "conditions": "unstimulated RAW264.7 macrophages, with respect to basal"}},
  "note": "“Also recorded” adds a separate entry of the source.",
  "data": [
    {"compound": "OO", "note": "[H2O2, hydrogen peroxide]", "values": [
      {"measurement": "LDH in cell culture supernatants (LDH release)", "setting": "[1]", "result": "induces LDH release"},
      {"measurement": "intracellular LDH", "setting": "[1]; vs control", "result": "rise in intracellular LDH"}
    ]},
    {"compound": "CC(C)Cc1ccc(C(C)C(=O)O)cc1", "note": "(stereo not drawn) [Positive control, Ibuprofen, reference compound]", "values": [
      {"measurement": "edema inhibition", "setting": "[2]", "result": 78, "unit": "%"}
    ]},
    {"compound": "undercarboxylated osteocalcin [Glu-OC]", "values": [
      {"measurement": "escape latency (Morris water maze)", "setting": "[3]", "result": "lower escape latency; also recorded: reduced escape latency"},
      {"measurement": "amyloid pathology / deposits in brain (Congo Red)", "setting": "[4]", "result": "significant reduction in amyloid pathology"},
      {"measurement": "amyloid pathology / deposits in brain (Congo Red)", "setting": "[4]; listed as Gla-OC", "result": "lesser amyloid deposits"},
      {"measurement": "fibrillar Abeta42 immunostaining of brain", "setting": "[4]; fibrillar specific Abeta42 antibody", "result": "fewer yet larger Abeta42+ fibrillar amyloid deposits; also recorded: positive for intense fibrillar Abeta42 structures"},
      {"measurement": "insoluble (plaque associated) Abeta42 level in brain", "setting": "[5]", "result": "reduced"},
      {"measurement": "soluble Abeta42 level in brain", "setting": "[5]", "result": "increased"},
      {"measurement": "insoluble (plaque associated) Abeta42 level in brain", "setting": "[5]; listed as Gla-OC", "result": "significantly reduced"},
      {"measurement": "soluble Abeta42 level in brain", "setting": "[5]; listed as Gla-OC", "result": "significantly increased"},
      {"measurement": "Abeta42 fibrillization (TEM)", "setting": "[6]; Abeta42 100 micromolar with 3 ng of osteocalcin", "result": "Mature fibrils"},
      {"measurement": "Abeta42 fibrillization (TEM)", "setting": "[6]; Abeta42 100 micromolar, Glu-OC 3-10 ng or none, 1×PBS pH 7.4, 37° C., 8 hours", "result": "demonstrated fibrillization"},
      {"measurement": "increase in mRNA level of Cd36", "setting": "[7]", "result": "do not elicit induction"},
      {"measurement": "increase in mRNA level of Cd74 (MHC-II)", "setting": "[7]", "result": "do not elicit induction"}
    ]}
  ]
}
